Data taken from patent publication EP0390111B1 (MERRELL DOW PHARMACEUTICALS INC., priority 1989, dated 1990).

Columns and labels:
[1] = molecular target: T1, adenosine A-2 receptors (Rattus norvegicus, UniProt P30543); assay: Test for affinity for brain adenosine A-2 receptors ([3H]NECA competition, striatal membranes); assay type: binding; conditions: rat brain striatum membranes, [3H]NECA 94 nM, 25°C, 60 minutes; read-out: A-2 Receptor Ki
T1 construct: from tissue; host or cells: rat brain striatum membranes (young male C-D strain rats, Charles River)
T1 sequence (P30543 whole entry): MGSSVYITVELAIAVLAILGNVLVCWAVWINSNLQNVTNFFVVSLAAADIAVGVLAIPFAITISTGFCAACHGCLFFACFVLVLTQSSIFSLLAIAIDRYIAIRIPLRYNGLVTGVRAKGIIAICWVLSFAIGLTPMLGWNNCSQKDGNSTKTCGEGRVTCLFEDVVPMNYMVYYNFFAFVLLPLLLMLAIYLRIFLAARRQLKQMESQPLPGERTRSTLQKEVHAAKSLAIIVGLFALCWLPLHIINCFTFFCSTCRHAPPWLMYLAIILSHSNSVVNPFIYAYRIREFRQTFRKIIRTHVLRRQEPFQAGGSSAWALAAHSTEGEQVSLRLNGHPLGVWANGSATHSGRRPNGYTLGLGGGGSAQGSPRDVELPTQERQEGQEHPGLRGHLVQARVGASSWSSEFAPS
Procedure: Membranes for ligand binding are isolated from rat brain striatum. The tissue is homogenized in 20 vol. ice-cold 50 mM Tris-HCl buffer (pH 7.7) using a polytron (setting for 6 to 20 seconds). The homogenate is centrifuged at 50,000 x g for 10 minutes at 4°C. The pellet is again homogenized in a polytron in 20 vol. of buffer, and centrifuged as before. The pellet is finally resuspended in 40 vol. of 50 mM Tris-HCl (pH 7.7) per gram of original wet weight of tissue.
Incubations are carried out at 25°C for 60 minutes. Each tube is filtered through GF/B glass fiber filters using a vacuum. The filters are rinsed two times with 5 ml of the ice-cold buffer. […] The filters are counted by liquid scintillation spectrometry.
Specific binding of [3H]NECA is measured as the excess over blank runs in the presence of 100 µM 2-chloroadenosine. Total membrane-bound radioactivity is about 2.5% of that added to the test tubes. […] Specific binding to membranes is about 50% of the total bound.

[2] = molecular target: T2, adenosine A-1 receptor (Rattus norvegicus, UniProt P25099); assay: biochemical
T2 sequence (P25099 1-326): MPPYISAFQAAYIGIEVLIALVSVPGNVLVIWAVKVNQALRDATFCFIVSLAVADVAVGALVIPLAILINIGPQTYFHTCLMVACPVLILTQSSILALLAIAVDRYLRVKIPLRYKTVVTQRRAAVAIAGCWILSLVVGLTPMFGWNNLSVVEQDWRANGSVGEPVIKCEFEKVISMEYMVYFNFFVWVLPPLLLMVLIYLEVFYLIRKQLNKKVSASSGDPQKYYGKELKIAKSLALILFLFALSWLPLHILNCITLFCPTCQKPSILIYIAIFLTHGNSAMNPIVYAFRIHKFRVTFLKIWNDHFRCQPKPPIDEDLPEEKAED

[3] = molecular target: A-2 receptors; conditions: brain slice assay; cited from earlier work
[4] = test system: adenosine receptors; conditions: in vivo; cited from earlier work

Structure (SMILES) | Ki [1] | Ki [2] | Ki [3] | potency in antagonizing the effects of adenosine analogs on heart rate versus blood pressure [4]
CCCOC1=Nc2c(cnn2-c2ccccc2)C2=N[C@H](Cc3ccccc3)CN12 [Compound 1, (R)-2,7-dihydro-7-phenyl-2-(phenylmethyl)-5-propoxy-3H-imidazo[1,2-c]pyrazolo[4,3-e]pyrimidine] | > 6.99 µM | 1.24 µM | – | –
CCCOC1=Nc2c(cnn2-c2ccccc2)C2=N[C@@H](Cc3ccccc3)CN12 [Compound 2, (S)-2,7-dihydro-7-phenyl-2-(phenylmethyl)-5-propoxy-3H-imidazo[1,2-c]pyrazolo[4,3-e]pyrimidine] | 0.508 µM | 2.68 µM | – | –
C1=Nc2c(cnn2-c2ccccc2)C2=N[C@H](Cc3ccccc3)CN12 [Compound 3, (R)-2,7-dihydro-7-phenyl-2-(phenylmethyl)-3H-imidazo[1,2-c]pyrazolo[4,3-e]pyrimidine] | 25 µM | 1.9 µM | – | –
C1=Nc2c(cnn2-c2ccccc2)C2=N[C@@H](Cc3ccccc3)CN12 [Compound 4, (S)-2,7-dihydro-7-phenyl-2-(phenylmethyl)-3H-imidazo[1,2-c]pyrazolo[4,3-e]pyrimidine] | > 199 µM | 10 µM | – | –
C1=Nc2c(ncn2-c2ccccc2)C2=N[C@@H](Cc3ccccc3)CN12 [Compound 5, (S)-7,8-dihydro-3-phenyl-8-(phenylmethyl)-3H-diimidazo[1,2-c:4',5'-e]pyrimidine] | > 199 µM | 44.6 µM | – | –
C1=Nc2c(ncn2-c2ccccc2)C2=N[C@H](Cc3ccccc3)CN12 [Compound 6, (R)-7,8-dihydro-3-phenyl-8-(phenylmethyl)-3H-diimidazo[1,2-c:4',5'-e]pyrimidine] | 100 µM | 8.4 µM | – | –
CCCOC1=Nc2c(cnn2-c2ccccc2)C2=N[C@H](C)[C@@H](c3ccccc3)N12 [Compound 7, (2R-trans)-2,7-dihydro-2-methyl-3,7-diphenyl-5-propoxy-3H-imidazo[1,2-c]pyrazolo[4,3-e]pyrimidine] | 14.2 µM | 12.1 µM | – | –
C1=Nc2nc[nH]c2C2=N[C@H](Cc3ccccc3)CN12 [Compound 9, (R)-7,8-dihydro-8-(phenylmethyl)-1H-diimidazo[1,2-c:4',5'-e]pyrimidine] | > 199 µM | 199 µM | – | –
C1=Nc2nc[nH]c2C2=N[C@@H](Cc3ccccc3)CN12 [Compound 10, (S)-7,8-dihydro-8-(phenylmethyl)-1H-diimidazo[1,2-c:4',5'-e]pyrimidine] | > 199 µM | 199 µM | – | –
OC[C@H]1O[C@@H](n2cnc3c2N=CN2C[C@H](Cc4ccccc4)N=C32)[C@H](O)[C@@H]1O [Compound 13, (S)-7,8-dihydro-3-(β-D-ribofuranosyl)-8-(phenylmethyl)-3H-diimidazo[1,2-c:4',5'-e]pyrimidine] | 10.6 µM | 4.5 µM | – | –
OC[C@H]1O[C@@H](n2cnc3c2N=CN2C[C@@H](Cc4ccccc4)N=C32)[C@H](O)[C@@H]1O [Compound 14, (R)-7,8-dihydro-3-(β-D-ribofuranosyl)-8-(phenylmethyl)-3H-diimidazo[1,2-c:4',5'-e]pyrimidine] | 46.8 µM | 65 µM | – | –
CCCn1c(=O)c2[nH]c(-c3ccc(OCC(=O)NCCN)cc3)nc2n(CCC)c1=O [XAC] | – | – | 0.049 ± 0.017 µM | much more potent in antagonizing the effects of adenosine analogs on heart rate than on blood pressure
CCCn1c(=O)c2[nH]c(-c3ccc(OCC(=O)O)cc3)nc2n(CCC)c1=O [XCC] | – | – | 0.034 ± 0.013 µM | –
